Experimental data published in patent US10975068B2, “6-aminopyridin-3-yl thiazoles as modulators of RORγT” (Janssen Pharmaceutica NV, priority 2016, dated 2021).
pKd: −log10 of the molar value.

The molecules below were run against human RORγt ligand binding domain (RORγt LBD) (Homo sapiens (Human), UniProt P51449) (assay: RORγt ThermoFluor® assay (thermal shift binding)). Conditions: read-out: ThermoFluor® Assay, Kd.
Chain of human RORγt ligand binding domain (RORγt LBD) (P51449 other isoform, or with tags, fused parts or gaps): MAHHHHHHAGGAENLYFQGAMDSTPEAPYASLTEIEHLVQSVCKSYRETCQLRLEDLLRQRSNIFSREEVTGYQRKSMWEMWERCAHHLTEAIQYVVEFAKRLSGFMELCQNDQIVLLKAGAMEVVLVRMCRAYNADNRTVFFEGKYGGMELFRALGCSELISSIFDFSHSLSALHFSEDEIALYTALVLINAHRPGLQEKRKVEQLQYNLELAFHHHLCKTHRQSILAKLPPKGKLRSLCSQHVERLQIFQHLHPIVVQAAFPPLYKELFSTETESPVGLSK
In short: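 His-tagged human RORγt LBD (0.065 mg/mL) with 60 μM 1,8-ANS in 100 mM Hepes pH 7.0, 10 mM NaCl, 2.5 mM GSH, 0.002% Tween-20 was heated at 1 °C/min.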
`CC(C)(O)CNC(=O)c1nc(C(=O)N2C3CCC2CC3)c(-c2cnc(NC3(C)CCC3)cc2C(F)F)s1` [Example 169, 4-((1s,4s)-7-Azabicyclo[2.2[1]heptane-7-carbonyl)-5-(4-(difluoromethyl)-6-((1-methylcyclobutyl)amino)pyridine-3-yl)-N-(2-hydroxy-2-methylpropyl))thiazole-2-carboxamide] was tested, and the pKd was 8.57. For `C[C@H](NC(=O)c1nc(C(=O)N2CCC[C@@H]2C)c(-c2cnc(N[C@@H](C)C(F)(F)F)cc2C(F)F)s1)C(C)(C)O` [Example 199, 5-(4-(Difluoromethyl)-6-(((S)-1,1,1-trifluoropropan-2-yl)amino)pyridine-3-yl)-N—((S)-3-hydroxy-3-methylburan-2-yl)-4-((S)-2-methylpyrrolidine-1-carbonyl)thiazole-2-carboxamide], the pKd was 8.27. For `C[C@H](Nc1cc(C(F)(F)F)c(-c2sc(C(=O)NCC(C)(C)O)nc2C(=O)N2CC(F)(F)C[C@@H]2C)cn1)C1CC1` [Example 142, 5-(6-(((S)-1-Cyclopropylethyl)amino)-4-(trifluormethyl)pyridin-3-yl)-4-((S)-4,4-difluoro-2-methylpyrrolidine-1-carbonyl)-N-(2-hydroxy-2-methylpropyl)thiazole-2-carboxamide], the pKd was 8.85. For `C[C@H]1CCCCN1C(=O)c1nc(C(=O)NCC(C)(C)O)sc1-c1cnc(NC2CCCC2)cc1C(F)F` [Example 41, (S)-5-(6-(Cyclopentylamino)-4-(difluoromethyl)pyridin-3-yl)-N-(2-hydroxy-2-methylpropyl)-4-(2-methylpiperidine-1-carbonyl)thiazole-2-carboxamide], the pKd was 9.13. Work on `C[C@H](Nc1cc(C(F)(F)F)c(-c2sc(C(=O)NCC(C)(C)O)nc2C(=O)N2CCC[C@@H]2C)cn1)C1CC1` [Example 40, 5-(6-(((S)-1-Cyclopropylethyl)amino)-4-(trifluoromethyl)pyridin-3-yl)-N-(2-hydroxy-2-methylpropyl)-4-((S)-2-methylpyrrolidine-1-carbonyl)thiazole-2-carboxamide] yielded a pKd of 8.55. `C[C@H]1CCCN1C(=O)c1nc(C(=O)NCC(C)(C)O)sc1-c1cnc(NC(C)(C)C)cc1C(F)(F)F` [Example 52, (S)-5-(6-(tert-Butylamino)-4-(trifluoromethyl)pyridin-3-yl)-N-(2-hydroxy-2-methylpropyl)-4-(2-methylpyrrolidine-1-carbonyl)thiazole-2-carboxamide] was tested, and the pKd was 8.92. `C[C@H]1CCCN1C(=O)c1nc(C(=O)NCC(C)(C)O)sc1-c1cnc(NCC(C)(C)C)cc1C(F)(F)F` [Example 87, (S)—N-(2-Hydroxy-2-methylpropyl)-4-(2-methylpyrrolidine-1-carbonyl)-5-(6-(neopentylamino)-4-(trifluoromethyl)pyridin-3-yl)thiazole-2-carboxamide] showed a pKd of 8.89. `CC[C@H](Nc1cc(C(F)F)c(-c2sc(C(=O)NCC(C)(C)O)nc2C(=O)N2CC(F)(F)C[C@@H]2C)cn1)C(F)(F)F` [Example 90, 4-((S)-4,4-Difluoro-2-methylpyrrolidine-1-carbonyl)-5-(4-(difluoromethyl)-6-(((S)-1,1,1-trifluorobutan-2-yl)amino)pyridin-3-yl)-N-(2-hydroxy-2-methylpropyl)thiazole-2-carboxamide] was tested, and the pKd was 8.85. Molecule `C[C@H](Nc1cc(C(F)F)c(-c2sc(C(=O)NCC(C)(C)O)nc2C(=O)N2CCCC[C@@H]2C)cn1)C(F)(F)F` [Example 144] has a pKd of 8.82. `CC[C@H](Nc1cc(C(F)(F)F)c(-c2sc(C(=O)NCC(C)(C)O)nc2C(=O)N2CCC[C@@H]2C)cn1)C1CC1` (relative stereo) [Example 128, 5-(6-(((S*)-1-Cyclopropylpropyl)amino)-4-(trifluoromethyl)pyridin-3-yl)-N-(2-hydroxy-2-methylpropyl)-4-((S)-2-methylpyrrolidine-1-carbonyl)thiazole-2-carboxamide] showed a pKd of 8.59. Molecule `C[C@H](Nc1cc(C(F)(F)F)c(-c2sc(C(=O)NCC(C)(C)O)nc2C(=O)N2CCC[C@@H]2C)cn1)C(F)(F)F` [Example 78, N-(2-Hydroxy-2-methylpropyl)-4-((S)-2-methylpyrrolidine-1-carbonyl)-5-(4-(trifluoromethyl)-6-(((S)-1,1,1-trifluoropropan-2-yl)amino)pyridin-3-yl)thiazole-2-carboxamide] has a pKd of 8.49. For `C[C@H](Nc1cc(C(F)(F)F)c(-c2sc(C(=O)NCC(C)(C)O)nc2C(=O)N2C3CCC2CC3)cn1)C1CC1` [Example 51, 4-((1s,4s)-7-Azabicyclo[2.2.1]heptane-7-carbonyl)-5-(6-(((S)-1-cyclopropylethyl)amino)-4-(trifluoromethyl)pyridin-3-yl)-N-(2-hydroxy-2-methylpropyl)thiazole-2-carboxamide], the pKd was 8.49. `C[C@H](NC(=O)c1nc(C(=O)N2CCC[C@@H]2C)c(-c2cnc(NC(C)(C)C)cc2C(F)(F)F)s1)C(C)(C)O` [Example 336, 5-[6-(tert-Butylamino)-4-(trifluoromethyl)-3-pyridyl]-N-[(1S)-2-hydroxy-1,2-dimethyl-propyl]-4-[(2S)-2-methylpyrrolidine-1-carbonyl]thiazole-2-carboxamide] showed a pKd of 8.96. `C[C@H](Nc1cc(C(F)F)c(-c2sc(C(=O)NCC(C)(C)O)nc2C(=O)N2CC(F)(F)C[C@@H]2C)cn1)C(F)(F)F` [Example 135] showed a pKd of 8.46. For `C[C@H](Nc1cc(C(F)F)c(-c2sc(C(=O)NCC(C)(C)O)nc2C(=O)N2CCCC[C@@H]2C)cn1)C1CC1` [Example 37, 5-(6-(((S)-1-Cyclopropylethyl)amino)-4-(difluoromethyl)pyridin-3-yl)-N-(2-hydroxy-2-methylpropyl)-4-((S)-2-methylpiperidine-1-carbonyl)thiazole-2-carboxamide], the pKd was 9.19. `CC(C)(C)CNc1cc(C(F)F)c(-c2sc(C(=O)NCC(C)(C)O)nc2C(=O)N2C3CCC2CC3)cn1` [Example 116, 4-((1s,4s)-7-Azabicyclo[2.2.1]heptane-7-carbonyl)-5-(4-(difluoromethyl)-6-(neopentylamino)pyridin-3-yl)-N-(2-hydroxy-2-methylpropyl)thiazole-2-carboxamide] was tested, and the pKd was 8.44. For `C[C@H]1CCCCN1C(=O)c1nc(C(=O)NCC(C)(C)O)sc1-c1cnc(NCC(C)(C)C)cc1C(F)(F)F` [Example 86, (S)—N-(2-Hydroxy-2-methylpropyl)-4-(2-methylpiperidine-1-carbonyl)-5-(6-(neopentylamino)-4-(trifluoromethyl)pyridin-3-yl)thiazole-2-carboxamide], the pKd was 9.77. With `CC(C)(O)CNC(=O)c1nc(C(=O)N2C3CCC2CC3)c(-c2cnc(NC3(C)CCC3)cc2C(F)(F)F)s1` [Example 140, 4-((1s,4s)-7-Azabicyclo[2.2.1]heptane-7-carbonyl)-N-(2-hydroxy-2-methylpropyl)-5-(6-((1-methylcyclobutyl)amino)-4-(trifluoromethyl)pyridin-3-yl)thiazole-2-carboxamide] the pKd was 8.77. Molecule `C[C@H]1CC(F)(F)CN1C(=O)c1nc(C(=O)NCC(C)(C)O)sc1-c1cnc(NCC(C)(C)C)cc1C(F)F` [Example 115, (S)-4-(4,4-Difluoro-2-methylpyrrolidine-1-carbonyl)-5-(4-(difluoromethyl)-6-(neopentylamino)pyridin-3-yl)-N-(2-hydroxy-2-methylpropyl)thiazole-2-carboxamide] has a pKd of 8.72.
